Drawing on ChEMBL document CHEMBL2073789, “Reversal of P-glycoprotein mediated multidrug resistance by a newly synthesized 1,4-benzothiazipine derivative, JTV-519” (Cancer Lett, 2002), this text covers activity and Activity for one compound.

The target of series [1] is Multidrug resistance-associated protein 1 (MRP1) (Homo sapiens, UniProt P33527). The experiment in a line: TP_TRANSPORTER: inhibition of 125I-azidoAG-A photoaffinity labeling (125I-azidoAG-A: 5 uM, JTV-519: 500 uM) in membrane from KB/MRP cells. Details: scale not given: the % may be the effect or the level left. The class given is functional, cell membranes, Membrane vesicle. The note with it: probe 125I-azidoAG-A (5 uM), read-out: Activity.

Series [2] concerns the target ATP-dependent translocase ABCB1 (Homo sapiens, UniProt P08183). The series is described as follows: TP_TRANSPORTER: inhibition of Adriamycin efflux (Adriamycin: 10 uM, JTV-519: 10 uM) in K562/MDR cells. The class given is functional, cell-based.

ATP-dependent translocase ABCB1, sequence (P08183 whole entry): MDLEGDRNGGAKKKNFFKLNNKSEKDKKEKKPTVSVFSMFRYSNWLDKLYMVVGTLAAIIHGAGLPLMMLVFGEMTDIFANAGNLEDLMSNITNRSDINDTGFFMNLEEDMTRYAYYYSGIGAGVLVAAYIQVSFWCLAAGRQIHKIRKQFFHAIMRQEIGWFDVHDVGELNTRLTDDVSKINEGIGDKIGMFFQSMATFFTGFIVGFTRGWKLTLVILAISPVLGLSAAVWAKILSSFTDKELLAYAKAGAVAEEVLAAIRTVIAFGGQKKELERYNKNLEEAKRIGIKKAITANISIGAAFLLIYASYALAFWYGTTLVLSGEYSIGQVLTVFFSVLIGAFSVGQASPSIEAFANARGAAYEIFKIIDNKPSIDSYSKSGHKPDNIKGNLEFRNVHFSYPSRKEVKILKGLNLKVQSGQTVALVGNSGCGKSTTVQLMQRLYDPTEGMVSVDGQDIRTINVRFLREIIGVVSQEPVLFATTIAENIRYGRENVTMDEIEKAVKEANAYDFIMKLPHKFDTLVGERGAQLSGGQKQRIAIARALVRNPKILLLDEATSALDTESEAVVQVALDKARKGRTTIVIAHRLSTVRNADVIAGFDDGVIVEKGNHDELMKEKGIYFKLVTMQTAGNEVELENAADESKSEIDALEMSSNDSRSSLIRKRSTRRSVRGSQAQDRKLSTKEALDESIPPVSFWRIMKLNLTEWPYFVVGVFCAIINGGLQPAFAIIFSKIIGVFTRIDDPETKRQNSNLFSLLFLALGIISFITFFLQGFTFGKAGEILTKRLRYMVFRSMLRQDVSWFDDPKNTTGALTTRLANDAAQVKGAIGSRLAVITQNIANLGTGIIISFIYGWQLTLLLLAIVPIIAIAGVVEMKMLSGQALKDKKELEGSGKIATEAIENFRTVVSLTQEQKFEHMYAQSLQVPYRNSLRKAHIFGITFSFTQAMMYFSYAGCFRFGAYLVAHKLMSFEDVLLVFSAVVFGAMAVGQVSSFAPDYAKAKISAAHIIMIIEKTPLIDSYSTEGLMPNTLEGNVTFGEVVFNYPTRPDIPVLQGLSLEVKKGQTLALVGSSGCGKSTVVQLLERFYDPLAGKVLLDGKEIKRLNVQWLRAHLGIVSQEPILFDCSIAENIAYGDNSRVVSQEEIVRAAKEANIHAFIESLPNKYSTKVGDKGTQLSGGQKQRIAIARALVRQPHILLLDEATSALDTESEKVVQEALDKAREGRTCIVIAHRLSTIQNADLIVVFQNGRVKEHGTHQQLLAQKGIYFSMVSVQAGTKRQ
Multidrug resistance-associated protein 1 (MRP1), sequence (P33527 whole entry): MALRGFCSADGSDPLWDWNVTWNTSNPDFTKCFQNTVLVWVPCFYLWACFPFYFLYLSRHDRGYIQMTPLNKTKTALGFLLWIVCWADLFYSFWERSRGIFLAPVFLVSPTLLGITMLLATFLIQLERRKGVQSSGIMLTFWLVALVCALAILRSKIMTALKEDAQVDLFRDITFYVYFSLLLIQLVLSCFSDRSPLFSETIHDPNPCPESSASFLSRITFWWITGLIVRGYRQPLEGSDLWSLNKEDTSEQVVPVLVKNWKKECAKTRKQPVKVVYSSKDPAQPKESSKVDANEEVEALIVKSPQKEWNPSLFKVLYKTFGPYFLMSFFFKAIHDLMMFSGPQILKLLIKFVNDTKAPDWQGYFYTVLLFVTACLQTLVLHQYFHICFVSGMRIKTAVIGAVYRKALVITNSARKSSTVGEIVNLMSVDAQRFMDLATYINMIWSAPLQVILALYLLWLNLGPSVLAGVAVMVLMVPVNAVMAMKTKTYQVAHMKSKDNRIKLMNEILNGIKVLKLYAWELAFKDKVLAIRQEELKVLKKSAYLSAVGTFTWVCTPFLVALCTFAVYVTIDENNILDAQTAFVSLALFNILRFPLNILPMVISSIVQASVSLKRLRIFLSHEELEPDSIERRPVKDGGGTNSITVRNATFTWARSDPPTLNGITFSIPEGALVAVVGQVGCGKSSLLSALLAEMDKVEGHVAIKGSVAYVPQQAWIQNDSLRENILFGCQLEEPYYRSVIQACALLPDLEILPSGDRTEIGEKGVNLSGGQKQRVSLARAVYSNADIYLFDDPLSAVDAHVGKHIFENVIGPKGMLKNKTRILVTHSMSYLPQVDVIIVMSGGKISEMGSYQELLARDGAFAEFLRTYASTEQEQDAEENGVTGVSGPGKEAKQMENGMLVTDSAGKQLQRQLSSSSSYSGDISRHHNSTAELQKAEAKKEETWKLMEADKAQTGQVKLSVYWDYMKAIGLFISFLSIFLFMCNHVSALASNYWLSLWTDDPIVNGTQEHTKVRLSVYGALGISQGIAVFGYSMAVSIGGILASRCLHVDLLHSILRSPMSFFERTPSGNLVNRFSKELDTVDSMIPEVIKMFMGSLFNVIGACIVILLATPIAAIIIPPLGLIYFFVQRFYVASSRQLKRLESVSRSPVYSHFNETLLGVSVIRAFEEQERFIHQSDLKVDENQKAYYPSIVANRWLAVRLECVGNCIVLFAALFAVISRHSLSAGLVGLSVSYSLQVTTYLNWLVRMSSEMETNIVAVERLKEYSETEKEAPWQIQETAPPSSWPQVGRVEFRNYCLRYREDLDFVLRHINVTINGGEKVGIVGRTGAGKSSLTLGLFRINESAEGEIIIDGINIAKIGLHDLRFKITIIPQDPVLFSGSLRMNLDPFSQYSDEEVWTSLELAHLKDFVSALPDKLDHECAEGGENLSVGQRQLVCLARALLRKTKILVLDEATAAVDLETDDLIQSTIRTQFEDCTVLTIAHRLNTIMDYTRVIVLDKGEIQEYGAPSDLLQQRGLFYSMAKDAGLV

For the compound `COc1ccc2c(c1)CN(C(=O)CCN1CCC(Cc3ccccc3)CC1)CCS2`, the activity at 500 µM in series [1] amounted to 58%. The Activity result in series [2] was “inhibitor [+]”.
